Laboratory results taken from ChEMBL document CHEMBL1201862, “PubChem BioAssay data set” (2004).
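1) Cells in 96-well plates. 2) Compound, 48 h, 5 concentrations. 3) Linear interpolation between surrounding doses. 4) Unreached endpoint = highest concentration. GI50: concentration for 50% inhibition of growth.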 Calls of active or inactive are those of the source. No stated cut-off is given here; in the data, active = GI50 up to about 1.1 µM and inactive = higher. Non-standard residues stand in square brackets, D forms with d. Residues, ends and D or L forms follow the SMILES beside them. *: point of attachment. Cbz = O=C(OCc1ccccc1)*; Boc = CC(C)(C)OC(=O)*; Aib = CC(C)(N)C(=O)O; OBn = c1ccc(CO*)cc1; OtBu = CC(C)(C)O*; βAla = NCCC(=O)O

Experiments:
Assay in all cases: NCI anticancer screen, dose series, 48 h
MOLT-4 = test system: MOLT-4
SF-539 = test system: SF-539
CCRF-CEM = test system: CCRF-CEM
NCI-H226 = test system: NCI-H226
NCI-H460 = test system: NCI-H460
CAKI-1 = test system: CAKI-1
OVCAR-3 = test system: OVCAR-3
DU-145 = test system: DU-145
HCT-15 = test system: HCT-15
UACC-257 = test system: UACC-257
SF-268 = test system: SF-268
SN12C = test system: SN12C
MDA-MB-231 = test system: MDA-MB-231
SK-MEL-5 = test system: SK-MEL-5
SK-MEL-2 = test system: SK-MEL-2
MDA-MB-435 = test system: MDA-MB-435
LOX IMVI = test system: LOX IMVI
ACHN = test system: ACHN
HCC 2998 = test system: HCC 2998
OVCAR-8 = test system: OVCAR-8
TK-10 = test system: TK-10
M14 = test system: M14
786-0 = test system: 786-0
HOP-62 = test system: HOP-62
SF-295 = test system: SF-295
SK-OV-3 = test system: SK-OV-3
U-251 = test system: U-251
NCI-H23 = test system: NCI-H23
K562 = test system: K562
A498 = test system: A498
SW-620 = test system: SW-620
BT-549 = test system: BT-549
RXF 393 = test system: RXF 393
RPMI-8226 = test system: RPMI-8226
Hs-578T = test system: Hs-578T
HOP-92 = test system: HOP-92
SR = test system: SR
UACC-62 = test system: UACC-62
SNB-19 = test system: SNB-19
KM12 = test system: KM12
NCI-H522 = test system: NCI-H522
OVCAR-5 = test system: OVCAR-5
SK-MEL-28 = test system: SK-MEL-28
UO-31 = test system: UO-31
Malme-3M = test system: Malme-3M
EKVX = test system: EKVX
A549 = test system: A549
HL-60 = test system: HL-60
HCT-116 = test system: HCT-116
MCF7 = test system: MCF7
HT-29 = test system: HT-29
MDA-N = test system: MDA-N
NCI/ADR-RES = test system: NCI/ADR-RES
T47D = test system: T47D
COLO 205 = test system: COLO 205
OVCAR-4 = test system: OVCAR-4
IGROV-1 = test system: IGROV-1
PC-3 = test system: PC-3
SNB-75 = test system: SNB-75

CCN(CC)CCCNc1c2c(Cl)cc(Cl)cc2nc2nc(O)nc(C)c12
GI50 (MOLT-4): 20.7 µM (inactive) | GI50 (SF-539): > 100 µM (inactive) | GI50 (CCRF-CEM): 34.5 µM (inactive) | GI50 (NCI-H226): 55.2 µM (inactive) | GI50 (NCI-H460): 20.2 µM (inactive) | GI50 (CAKI-1): > 100 µM (inactive) | GI50 (OVCAR-3): 77.6 µM (inactive) | GI50 (DU-145): > 100 µM (inactive) | GI50 (HCT-15): > 100 µM | GI50 (UACC-257): 43 µM (inactive) | GI50 (SF-268): 23 µM (inactive) | GI50 (SN12C): 25.3 µM (inactive) | GI50 (MDA-MB-231): 18.5 µM (inactive) | GI50 (SK-MEL-5): 65.9 µM (inactive) | GI50 (SK-MEL-2): 27.5 µM (inactive) | GI50 (MDA-MB-435): 21.3 µM (inactive) | GI50 (LOX IMVI): 23.1 µM (inactive) | GI50 (ACHN): > 100 µM (inactive) | GI50 (HCC 2998): 21.5 µM (inactive) | GI50 (OVCAR-8): > 10 µM (inactive) | GI50 (TK-10): > 100 µM (inactive) | GI50 (M14): 26.4 µM (inactive) | GI50 (786-0): 18.7 µM (inactive) | GI50 (HOP-62): 23.2 µM (inactive) | GI50 (SF-295): 59.8 µM (inactive) | GI50 (SK-OV-3): 25.6 µM (inactive) | GI50 (U-251): 17.3 µM (inactive) | GI50 (NCI-H23): 55.8 µM (inactive) | GI50 (K562): 44.1 µM (inactive) | GI50 (A498): > 100 µM (inactive) | GI50 (SW-620): 17.8 µM (inactive) | GI50 (BT-549): 84.5 µM (inactive) | GI50 (RXF 393): > 100 µM (inactive) | GI50 (RPMI-8226): > 10 µM (inactive) | GI50 (Hs-578T): 47.5 µM (inactive) | GI50 (HOP-92): 57.3 µM (inactive) | GI50 (SR): > 10 µM (inactive) | GI50 (UACC-62): 68.2 µM (inactive) | GI50 (SNB-19): 19.5 µM (inactive) | GI50 (KM12): 15.7 µM (inactive) | GI50 (NCI-H522): 21.6 µM (inactive) | GI50 (OVCAR-5): 19.9 µM (inactive) | GI50 (SK-MEL-28): 30.6 µM (inactive) | GI50 (UO-31): > 100 µM (inactive) | GI50 (Malme-3M): 41.6 µM (inactive) | GI50 (EKVX): > 100 µM (inactive) | GI50 (A549): 42.9 µM (inactive) | GI50 (HL-60): 57.4 µM (inactive) | GI50 (HCT-116): 17.1 µM (inactive) | GI50 (MCF7): 23.3 µM (inactive) | GI50 (HT-29): 18 µM (inactive) | GI50 (MDA-N): 18.6 µM (inactive) | GI50 (NCI/ADR-RES): > 100 µM (inactive) | GI50 (T47D): > 100 µM (inactive) | GI50 (COLO 205): 45.3 µM (inactive) | GI50 (OVCAR-4): 33.9 µM (inactive) | GI50 (IGROV-1): 35.6 µM (inactive) | GI50 (PC-3): 30.7 µM (inactive)

CC(C)(C)OC(=O)CC(NC(=O)OC(C)(C)C)C(=O)NC(CCCCNC(=O)OCc1ccccc1)C(=O)NC(C)(C)C(=O)NCCC(=O)OCc1ccccc1 (stereo not drawn) (Boc-D(OtBu)K(Cbz)[Aib][βAla]-OBn; configuration not given here)
GI50 (MOLT-4): > 100 µM (inactive) | GI50 (SF-539): > 100 µM (inactive) | GI50 (NCI-H226): > 100 µM (inactive) | GI50 (NCI-H460): > 100 µM (inactive) | GI50 (CAKI-1): > 100 µM (inactive) | GI50 (OVCAR-3): > 100 µM (inactive) | GI50 (DU-145): > 100 µM (inactive) | GI50 (HCT-15): > 100 µM | GI50 (SF-268): > 100 µM (inactive) | GI50 (SN12C): > 100 µM (inactive) | GI50 (MDA-MB-231): > 100 µM (inactive) | GI50 (SK-MEL-5): > 100 µM (inactive) | GI50 (MDA-MB-435): > 100 µM (inactive) | GI50 (LOX IMVI): > 100 µM (inactive) | GI50 (ACHN): > 100 µM (inactive) | GI50 (OVCAR-8): > 100 µM (inactive) | GI50 (TK-10): > 100 µM (inactive) | GI50 (M14): > 100 µM (inactive) | GI50 (SNB-75): > 100 µM (inactive) | GI50 (786-0): > 100 µM (inactive) | GI50 (HOP-62): > 100 µM (inactive) | GI50 (SF-295): > 100 µM (inactive) | GI50 (SK-OV-3): > 100 µM (inactive) | GI50 (U-251): > 100 µM (inactive) | GI50 (NCI-H23): > 100 µM (inactive) | GI50 (K562): > 100 µM (inactive) | GI50 (A498): 86.3 µM (inactive) | GI50 (SW-620): > 100 µM (inactive) | GI50 (BT-549): > 100 µM (inactive) | GI50 (RXF 393): > 100 µM (inactive) | GI50 (RPMI-8226): > 100 µM (inactive) | GI50 (Hs-578T): > 100 µM (inactive) | GI50 (HOP-92): > 100 µM (inactive) | GI50 (SR): > 100 µM (inactive) | GI50 (UACC-62): > 100 µM (inactive) | GI50 (SNB-19): > 100 µM (inactive) | GI50 (KM12): > 100 µM (inactive) | GI50 (NCI-H522): > 100 µM (inactive) | GI50 (OVCAR-5): > 100 µM (inactive) | GI50 (SK-MEL-28): > 100 µM (inactive) | GI50 (UO-31): > 100 µM (inactive) | GI50 (Malme-3M): > 100 µM (inactive) | GI50 (EKVX): > 100 µM (inactive) | GI50 (A549): > 100 µM (inactive) | GI50 (HL-60): > 100 µM (inactive) | GI50 (HCT-116): > 100 µM (inactive) | GI50 (MCF7): > 100 µM (inactive) | GI50 (HT-29): > 100 µM (inactive) | GI50 (MDA-N): > 100 µM (inactive) | GI50 (NCI/ADR-RES): > 100 µM (inactive) | GI50 (T47D): > 100 µM (inactive) | GI50 (COLO 205): > 100 µM (inactive) | GI50 (OVCAR-4): > 100 µM (inactive) | GI50 (IGROV-1): > 100 µM (inactive) | GI50 (PC-3): > 100 µM (inactive)
